The record followed here is ChEMBL document CHEMBL4000188, “Synthesis and antimicrobial evaluation of novel analogues of dehydroabietic acid prepared by CH-Activation” (Eur J Med Chem, 2017).

Values after ≈ are worked out from the molar mass of the structure shown. Active and inactive are the calls of the source. The rule behind the calls is not given here.

Data set [1] is described as follows: Solubility of the compound in DMSO. It counts as physicochemical.
The test system of data set [2] is Staphylococcus aureus. Briefly: Anti-bacterial activity against methicillin/oxacillin-resistant Staphylococcus aureus ATCC 43300 at 32 ug/ml measured after 18 hrs. Format: functional.
Data set [3] deals with Staphylococcus aureus. As to the kind of experiment: Anti-bacterial activity against methicillin-resistant Staphylococcus aureus ATCC 43300 measured after 18 hrs. It counts as functional. The note with it: ATCC 43300, 18 h.

Turning to `Cc1ccc(C[C@@]2(C(N)=O)CCC[C@]3(C)c4ccc(C(C)C)cc4CC[C@@H]23)cc1`, the solubility result in data set [1] is “Insoluble”.
For `CC(C)c1ccc2c(c1)CC[C@H]1[C@](Cc3ccc(C(F)(F)F)cc3)(C(=O)O)CCC[C@]21C`, in the data set on Staphylococcus aureus [2], the outcome was Active.
With `COc1ccc(C[C@@]2(C(N)=O)CCC[C@]3(C)c4ccc(C(C)C)cc4CC[C@@H]23)cc1`, the solubility result in data set [1] is recorded as “Insoluble”.
In the case of `Cc1ccc(C[C@@]2(C(=O)O)CCC[C@]3(C)c4ccc(C(C)C)cc4CC[C@@H]23)cc1`, the outcome in the data set with Staphylococcus aureus [2] was Active.
On to `CC(C)c1ccc2c(c1)CC[C@H]1[C@](Cc3ccc(C(F)(F)F)cc3)(C(N)=O)CCC[C@]21C`, for which the solubility entry in data set [1] was “Insoluble”.
As to `CC(C)c1ccc2c(c1)CC[C@H]1[C@](Cc3ccc(C(=O)O)cc3)(C(N)=O)CCC[C@]21C`, the MIC80 with Staphylococcus aureus [3] was found to be 32 µg/mL (≈ 76.3 µM).
In the case of `COc1ccc(C[C@@]2(C(=O)O)CCC[C@]3(C)c4ccc(C(C)C)cc4CC[C@@H]23)cc1`, the outcome in the data set on Staphylococcus aureus [2] was Active.
With `CN[C@H](CC(C)C)C(=O)N[C@H]1C(=O)N[C@@H](CC(N)=O)C(=O)N[C@H]2C(=O)N[C@H]3C(=O)N[C@H](C(=O)N[C@H](C(=O)O)c4cc(O)cc(O)c4-c4cc3ccc4O)[C@H](O)c3ccc(c(Cl)c3)Oc3cc2cc(c3O[C@@H]2O[C@H](CO)[C@@H](O)[C@H](O)[C@H]2O[C@H]2C[C@](C)(N)[C@H](O)[C@H](C)O2)Oc2ccc(cc2Cl)[C@H]1O` [VANCOMYCIN], in the data set with Staphylococcus aureus [3], the MIC80 amounted to 1 µg/mL (≈ 0.69 µM).
